Measurements published in patent US7173053B2, “N-formyl hydroxylamine derivatives as inhibitors of bacterial polypeptide formylase for treating microbial infections” (British Biotech Pharmaceuticals Limited, priority 2000, dated 2007).
≈ marks a conversion by molar mass, not a printed value.

Experiments:
S. aureus ATCC 29213 = assay: agar plate dilution MIC, S. aureus ATCC 29213; format: cell-based; conditions: Staphylococcus aureus, ATCC29213, Iso-Sensitest agar pH 7.2, 18 to 24 hr incubation
Protocol: (§1) The susceptibilities of two strains of bacteria to the compounds of Example 1–4 were determined by a standard agar plate dilution method following recommendations in British Society for Antimicrobial Chemotherapy Working Party. 1991, “A guide to sensitivity testing British Society for Antimicrobial Chemotherapy, London, United Kingdom”. Briefly, Iso-Sensitest agar (pH 7.2: Oxoid, United Kingdom) is employed, supplemented with 5% horse blood (Oxoid) and 20 μg of NAD (Sigma) per ml are added to support growth of fastidious bacteria. The inoculum used is approximately 10^4 colony forming units of each isolate contained in a volume of 1 μl. Plates are incubated 18 to 24 hr in air, or for fasidious bacteria an atmosphere enriched with 4–6% carbon dioxide at 35° C. The MIC is determined as the lowest concentration of an antimicrobial tested that inhibited growth of the inoculum, disregarding a single persisting colony or faint haze caused by the inoculation.

S. pneumoniae ATCC 49619 = assay: agar plate dilution MIC, S. pneumoniae ATCC 49619; format: cell-based; conditions: Streptococcus pneumoniae, ATCC49619, Iso-Sensitest agar pH 7.2, 18 to 24 hr incubation
Protocol: as §1

Compound	MIC (S. aureus ATCC 29213) [µg/mL]	MIC (S. pneumoniae ATCC 49619) [µg/mL]
CC(C)(C)[C@H](NC(=O)[C@H](CC1CCCC1)CN(O)C=O)c1nc2cc(F)ccc2[nH]1 [Example 1, 2R-Cyclopentylmethyl-N-[1S-(5-fluoro-1H-benzoimidazol-2-yl)-2,2-dimethyl-propyl]-3-(formyl-hydroxy-amino)-propionamide]	4 (≈ 9.56 µM)	2 (≈ 4.78 µM)
CC(C)(C)[C@H](NC(=O)[C@H](CC1CCCC1)CN(O)C=O)c1nc2cc(Cl)ccc2[nH]1 [Example 2, N-[1-(5-Chloro-1H-benzoimidazol-2-yl)-2,2-dimethyl-propyl]-2-cyclopentylmethyl-3-(formyl-hydroxy-amino)-propionamide]	8 (≈ 18.4 µM)	2 (≈ 4.6 µM)
CC(C)(C)[C@H](NC(=O)[C@H](CC1CCCC1)CN(O)C=O)c1nc2ccccc2[nH]1 [Example 3, N-[1-(1H-Benzoimidazol-2-yl)-2,2-dimethyl-propyl]-2-cyclopentylmethyl-3-(formyl-hydroxy-amino)-propionamide]	8 (≈ 20 µM)	2 (≈ 4.99 µM)
CCCC[C@H](CN(O)C=O)C(=O)N[C@H](c1nc2ccccc2[nH]1)C(C)(C)C [Example 4, 2-[(Formyl-hydroxy-amino)-methyl]-hexanoic acid [1-(1H-benzoimidazol-2-yl)-2,2-dimethyl-propyl]-amide]	8 (≈ 21.4 µM)	4 (≈ 10.7 µM)
